Like-named read-outs stand apart in the source and are kept apart here.
Columns and labels:
[1] = system: KDR-positive vascular endothelial progenitor cells from human iPS cells (ChiPSC12 strain); assay: CD31-positive cell ratio (endothelial cell marker) by flow cytometry; type: cell-based
Procedure: Human iPS cells ([…]) were cultured in DEF-CS medium (Cellartis) in accordance with the instructions attached to the medium. In order to efficiently induce differentiation of mesodermal cells, iPS cells were coated with Matrigel (Matrigel Sandwich method) in accordance with the following procedures. […] Here, SB431542, another TGF-β inhibitor, was used as a negative control. The cells were collected at Day 11, and the cell numbers were counted.

[2] = system: KDR-positive vascular endothelial progenitor cells from human iPS cells (ChiPSC12 strain); assay: Cell numbers during differentiation of iPS cell-derived vascular endothelial progenitor cells cultured with a TGF-β inhibitor (Days 8 to 11); type: cell-based; settings: for Cell Numbers (Day 19) / Cell Numbers (Day 30): cell numbers at Day 8 defined as 1
[3] = system: KDR-positive vascular endothelial progenitor cells from human iPS cells (ChiPSC12 strain)
Procedure: Human iPS cells (ChiPSC12 strain) were cultured in DEF-CS medium in accordance with the instructions attached to the medium.
TrypLE(trademark) Select was added to iPS cells that had been subcultured, and the cells were incubated at 37° C. for 3 to 7 minutes. The detached cells were collected as a single cell by pipetting, and the cell numbers were counted. […] Thereafter, the medium was exchanged with DEF-CS medium added with Matrigel diluted to 1:60, and the cells were cultured for additional 16 to 24 hours, thereby coating an upper layer of the cells with Matrigel.
The Matrigel-coated iPS cells obtained were differentiated into mesodermal cells in accordance with the following procedures. First, a medium of the Matrigel-coated iPS cells was exchanged with RPMI 1640 medium added with 100 ng/mL activin A, 2 mM GlutaMAX(trademark), and B27 supplement (without containing insulin) (this time point being defined as the beginning of the induction of differentiation=Day 0), and the cells were cultured for 24 hours (Day 1). Next, the medium was exchanged with RPMI 1640 medium added with 10 ng/mL hBMP4, 10 ng/mL hbFGF, 2 mM GlutaMAX, and B27 supplement, and the cells were cultured for 3 days (Day 4). Thereafter, the medium was exchanged with RPMI 1640 medium added with 100 ng/mL VEGF, 2 mM GlutaMAX, and B27 supplement, and the cells were cultured overnight (Day 5).
KDR-positive cells were separated from the cultured cells at Day 5 by using the magnetic-activated cell sorting, thereby isolating vascular endothelial progenitor cells. In order to separate the KDR-positive cells, an anti-KDR antibody to which a PE fluorescent label was bound was used as a primary antibody for labeling cells, and cells labeled with the primary antibody were collected with magnetic beads embedding anti-PE antibodies. […] Further, the medium at Day 6 was exchanged with RPMI 1640 medium added with B27 supplement, 50 units/mL penicillin, 50 μg/mL streptomycin, 2 mM GlutaMAX, and 100 ng/mL VEGF, and the cells were cultured for 2 days (Day 8).
Here, CD31 is a marker of endothelial cells, and CD34 is a marker of hematopoietic stems cells or endothelial progenitor cells. In addition, CD34 is also expressed in juvenile endothelial cells.

[4] = system: vascular endothelial cells induced from human iPS cells (ChiPSC12 strain); assay: Freezing and thawing of vascular endothelial cells induced with RepSox; settings: cells induced with 20 μM RepSox, collected Days 18 to 22, stored in liquid nitrogen for 3 days, thawed at 37° C.
Procedure: The collected cells were washed, and suspended in Stem Cell Banker (TAKARA BIO INC.) so as to have a cell concentration of 3×10^6/mL, and 1 mL of each of the suspension was dispensed to vials. The vials were placed in a frozen-treated vessel (BICELL, Nihon Freezer Co., Ltd.), and the cells were subjected to slow freezing in a freezing storage chamber held at a temperature of −80° C. Thereafter, each vial was transferred to a liquid nitrogen, and stored for 3 days.
The frozen cells were warmed for 2 minutes and 30 seconds with a water bath warmed to 37° C., to thaw the cells. […] An entire amount of the remaining cells was added to a tube to which 8 mL of a medium for proliferating endothelial cells had been dispensed in advance. Thereafter, a vial was rinsed with 1 mL of a medium for proliferating endothelial cells, and a rinsed medium was added to the tube. The tube was centrifuged at 200×g for 5 minutes, and the supernatant was then discarded. The cells were suspended in a fresh medium for culturing endothelial cells, and the cells were seeded at a density of 2×10^4 cells/cm^2 to a culture vessel. […]
The cells were collected on a seventh day after thawing the cells, and the cell numbers were counted. At the same time, the CD31-positive cell ratio, an endothelial cell marker, was measured with a flow cytometry.

SMILES	CD31-Positive (Day 19) ([1]; 10 μM inhibitor Days 8 to 11)	CD31-Positive (Day 30) ([1]; 10 μM inhibitor Days 8 to 11)	CD31-Positive (Day 19) ([1]; 20 μM inhibitor Days 8 to 11)	CD31-Positive (Day 30) ([1]; 20 μM inhibitor Days 8 to 11)	Cell Numbers (Day 19) ([2]; 10 μM inhibitor Days 8 to 11)	Cell Numbers (Day 30) ([2]; 10 μM inhibitor Days 8 to 11)	Cell Numbers (Day 19) ([2]; 20 μM inhibitor Days 8 to 11)	Cell Numbers (Day 30) ([2]; 20 μM inhibitor Days 8 to 11)	also measured
NC(=O)c1ccc(-c2nc(-c3ccc4c(c3)OCO4)c(-c3ccccn3)[nH]2)cc1 [SB431542]	97.7%	89.4%	98.7%	33.0%	1.3	0.9	2.3	5.1	–
Cc1cccc(-c2[nH]ncc2-c2ccc3ncccc3n2)n1 [RepSox]	99.7%	99.0%	99.8%	99.1%	3.5	9.1	3.5	3.1	CD31+/CD34+ (Day 13) ([3]; 3 μM RepSox Day 8 to 11): 96.9%; CD31+/CD34+ (Day 18) ([3]; 3 μM RepSox Day 8 to 11): 93.3%; CD31+/CD34+ (Day 13) ([3]; 10 μM RepSox Day 8 to 11): 96.1%; CD31+/CD34+ (Day 18) ([3]; 10 μM RepSox Day 8 to 11): 94.4%; CD31+/CD34+ (Day 13) ([3]; 20 μM RepSox Day 8 to 11): 95.8%; CD31+/CD34+ (Day 18) ([3]; 20 μM RepSox Day 8 to 11): 96.1%; CD31+/CD34+ cells at Day 13 ([3]; regardless of the concentrations of RepSox (3, 10, 20 μM)): ≥ 95%; cell viability after thawing [4]: 87%; CD31-Positive (Day 19) ([1]; 3 μM inhibitor Days 8 to 11): 98.9%; CD31-Positive (Day 30) ([1]; 3 μM inhibitor Days 8 to 11): 87.0%; CD31-positive ratios (Day 30) ([1]; text summary: 'in both the media containing 3 μM RepSox'): ≥ 87%; Cell Numbers (Day 19) ([2]; 3 μM inhibitor Days 8 to 11): 3.1; Cell Numbers (Day 30) ([2]; 3 μM inhibitor Days 8 to 11): 2.5; cell proliferation rates at Day 30 ([2]; text summary: 'in both the media containing 3 μM RepSox', relative to Day 8 = 1): ≥ 2.5

From patent publication US20200071675A1, “METHOD FOR PRODUCING ENDOTHELIAL CELLS” (TAKARA BIO INC., priority 2016, published 2020)
